From publication PMC4579064 (Toxicology and applied pharmacology, 2015)

Assays:
brain ChE = brain ChE activity in parathion-treated rats; assay type: in vivo, rat
female Long-Evans rats = conditions: out of 5 rats dosed with parathion 8 mg/kg oral; 60 min
rat = conditions: ref Gaines, 1960; cited from earlier work
[1] = assay type: in vivo, rat; conditions: after parathion 8 mg/kg oral; 60 min
[2] = substrate: CC1=CC(=O)c2ccccc2C1=O; experiment: CPR-mediated redox cycling, hydroxyl radical formation; assay type: biochemical, human; conditions: other: menadione; Fe/EDTA, terephthalate; pH 7.8; 37.0 °C
[3] = substrate: CC1=CC(=O)c2ccccc2C1=O; experiment: CPR-mediated redox cycling, H2O2 formation; assay type: biochemical, human; conditions: other: menadione as redox cycling substrate of CPR; Amplex Red; pH 7.8; 37.0 °C
[4] = parathion 8 mg/kg oral gavage alone, 60 min

**Q.** Which “forebrain ChE activity inhibited” value (brain ChE; [4]) does the source give for `CCOP(=S)(OCC)Oc1ccc([N+](=O)[O-])cc1` [parathion, diethyl 4-nitrophenyl phosphorothionate] here?
**A.** The value was 95%.

**Q.** What about the “hindbrain ChE activity inhibited” value (brain ChE; [4]) of the same molecule?
**A.** The value was 87%.

**Q.** What about the “rats that died before the end of the observation period” value (female Long-Evans rats) of the same molecule?
**A.** Its value is 1.

**Q.** And the “rat oral LD50” value (rat)?
**A.** The value was 2 to 13 mg/kg.

**Q.** Which “paraoxon levels in serum, liver and brain” value [1] does the source give for `CCOP(=O)(OCC)Oc1ccc([N+](=O)[O-])cc1` [paraoxon, diethyl 4-nitrophenyl phosphate] here?
**A.** Its value is “could not be detected”.

**Q.** With `CC1(S(=O)(=O)[O-])CC(=O)c2ccccc2C1=O.[Na+]` (centres unmarked) [menadione bisulfite] as the molecule, how does the “parathion-induced inhibition of brain cholinesterase activity” value (brain ChE; menadione bisulfite 40 mg/kg, ip) read?
**A.** The value was “reduced”.

B1: recombinant human CPR (Homo sapiens) (protein)
chain: MGDSHVDTSSTVSEAVAEEVSLFSMTDMILFSLIVGLLTYWFLFRKKKEEVPEFTKIQTLTSSVRESSFVEKMKKTGRNIIVFYGSQTGTAEEFANRLSKDAHRYGMRGMSADPEEYDLADLSSLPEIDNALVVFCMATYGEGDPTDNAQDFYDWLQETDVDLSGVKFAVFGLGNKTYEHFNAMGKYVDKRLEQLGAQRIFELGLGDDDGNLEEDFITWREQFWPAVCEHFGVEATGEESSIRQYELVVHTDIDAAKVYMGEMGRLKSYENQKPPFDAKNPFLAAVTTNRKLNQGTERHLMHLELDISDSKIRYESGDHVAVYPANDSALVNQLGKILGADLDVVMSLNNLDEESNKKHPFPCPTSYRTALTYYLDITNPPRTNVLYELAQYASEPSEQELLRKMASSSGEGKELYLSWVVEARRHILAILQDCPSLRPPIDHLCELLPRLQARYYSIASSSKVHPNSVHICAVVVEYETKAGRINKGVATNWLRAKEPAGENGGRALVPMFVRKSQFRLPFKATTPVIMVGPGTGVAPFIGFIQERAWLRQQGKEVGETLLYYGCRRSDEDYLYREELAQFHRDGALTQLNVAFSREQSHKVYVQHLLKQDREHLWKLIEGGAHIYVCGDARNMARDVQNTFYDIVAELGAMEHAQAVDYIKKLMTKGRYSLDVWS
**Q.** With B1 as the molecule, how does the Km [2] read?
**A.** Its Km is 1.7 µM.

**Q.** And the Km [3]?
**A.** Its Km is 4.1 µM.
